# How the values were obtained:
# hexobarbital oxidase = assay: hexobarbital narcosis period (change of hexobarbital oxidase activity in vivo); set-up: species or system rat; conditions: mean ± S.E.; for Hexobarbital Narcosis period in % of the control, 1 hour: 1 hour after administration; for Hexobarbital Narcosis period in % of the control (24 hours): 24 hours after administration
# Procedure: The enzyme inhibiting activity of the new compounds was tested in vivo, by measuring the change of hexobarbital oxidase activity. Female Hann.-Wistarrats, each weighing 50 to 60 g. were treated orally with a single 40 mg./kg. dose of the test compound. 1 and 24 hours after the administration of the active ingredient, the animals were narcotized with a 60 mg./kg. i.v. dosage of hexobarbital sodium, and the time elapsed until complete wakening was measured (Noordhoek, J.: Eur. J. Pharmacol., 3, 242 (1968)). The data were recorded, and the mean values, the standard errors, as well as the percentage increase with respect to the controls were calculated for each group. […] The hexobarbital concentration of the plasm, measured on the instant wakening, was the same for both the treated and the control animals, and thus the increase of narcosis period was not due to a certain central nervous interaction (Jori, A. et al.: Biochem. Pharmacol., 19, 2687 (1970)).
# acute toxicity = conditions: rat, in vivo, po; H-Wistar rats of both sexes, single 500 mg./kg. p.o., observed for 14 days; read-out: Perished animals (%)
# Procedure: The acute toxicity of the compounds of the formula (I) was tested on H-Wistar rats of both sexes, weighing 160 to 180 g. each. The compounds were administered in a single 500 mg./kg. dose, orally.
# aminopyrine demethylase = aminopyrine demethylase activity of liver after oral treatment; assay type: in vivo, rat; conditions: female H.Wistar rats, single 40 mg./kg. oral dose, liver taken two hours after treatment, results in % of the control (control = 260.7 ± 11.2 nmoles/g/min), mean ± S.E., the values are: activity
# Procedure: The enzyme inhibiting activity of the compounds of the formula (I) was further tested by determining the activity of the polysubstrate monooxygense enzyme system of the liver after treatment with the placebo and the compounds according to the invention, respectively. Female H.Wistar rats weighing 50 to 60 g. each were administered a single 40 mg./kg. dose of the test compounds, orally. Two hours after treatment the animals were decapitated and the livers were eliminated. After rinsing with a physiological saline solution at 0° C., drying and weighing, the livers were homogenized in a 0.1 molar Tris-HCl buffer (pH=7.2), containing 1.15% of potassium chloride at 0° C., centrifuged at 9000 g for 20 minutes, and the supernatant (postmitochondrial fraction) was used for further investigations. The microsomal fraction was prepared following the method developed by Cinti D. L. et al.: Biochem. Pharmacol., 21, 3249 (1972). The activity of aniline hydroxylase was determined from the velocity of p-amino-phenol formation according to Chabra R. S. et al.: Toxicol. Appl. Pharmacol., 22, 50 ( 1972). The activity of the aminopyrine demethylase was measured from the amount of the formaldehyde formed, according to Gourlay G. K. et al.: Biochem. Pharmacol., 27, 965 (1978). The control groups were treated with a placebo.
# [1] = from H. Ippen: Index Pharmacorum (1970); cited from earlier work
# [2] = female Hann.-Wistar rats, single 40 mg./kg. oral dose, hexobarbital sodium 60 mg./kg. i.v.
# [3] = reference compound, dose 100 mg/kg
SMILES,"Hexobarbital Narcosis period in % of the control, 1 hour (hexobarbital oxidase; [2])",Hexobarbital Narcosis period in % of the control (24 hours) (hexobarbital oxidase; [2]),mortality at 336 h (acute toxicity),Aminopyrine demethylase (aminopyrine demethylase),anticonvulsive side effect [1],"Hexobarbital Narcosis period in % of the control, 1 hour (hexobarbital oxidase; [3])",Hexobarbital Narcosis period in % of the control (24 hours) (hexobarbital oxidase; [3])
"CCC(O)(c1ccc(Cl)cc1)c1ccc(OCc2cccc(C)n2)cc1 (centres unmarked) [A, 2-methyl-6-{4-[1-(4-chlorophenyl)-1-hydroxypropyl]-phenoxymethyl}-pyridine]",259 ± 11.4 % of the control,155 ± 9.6 % of the control,0%,55 ± 4.4%,–,–,–
"CCCC(C(=O)OCCN(CC)CC)(c1ccccc1)c1ccccc1 [Proadiphene, (2-diethylaminoethyl)-α,α-diphenyl valerate, reference compound]",–,–,–,–,exerted an anticonvulsive side effect,241 ± 9.6 % of the control,44 ± 5.7 % of the control
"CCC(O)(c1ccc(OCc2cccc(C)n2)cc1)c1cc(C)ccc1C (centres unmarked) [B, 2-methyl-6-{4-[1-(2,5-dimethylphenyl)-1-hydroxypropyl]-phenoxymethyl}-pyridine]",135 ± 6.7 % of the control,174 ± 7.2 % of the control,0%,63 ± 4.4%,–,–,–

# From patent US4598080A, “Certain-2-methyl-6-{4-[1-phenyl-1-hydroxypropyl]-phenoxymethyl}pyridines which inhibit microsonal monoxygenase systems in liver” (Richter Gedeon Vegyeszeti Gyar Rt, priority 1982, dated 1986)
